Structures are written as SMILES.

Data set [1] can be described thus: Compound stability in human liver microsomes. Format: in vitro ADME. The conditions noted are these: for half-life at 5 μM: human liver microsomes 0.5 mg protein/mL, compound 5 μM, NADPH 1.0 mM, 37° C.; for CLint scaled at 5 μM: human liver microsomes, in vivo CLint extrapolated.
Data set [2] can be described thus: Compound stability in rat liver microsomes. Format: in vitro ADME. The conditions noted are these: pH 7.4; for half-life at 5 μM: rat liver microsomes 0.5 mg protein/mL, compound 5 μM, NADPH 1.0 mM, 37° C.; for CLint scaled at 5 μM: rat liver microsomes, in vivo CLint extrapolated.
The target of data set [3] is PI3K (p110α/p85α) (h) (Homo sapiens (Human), UniProt P42336). The data set can be described thus: PI3K (p110α/p85α) (h) non-radioactive HTRF kinase assay. The class given is biochemical. For orientation: Time-resolved FRET reads energy transfer from a long-lived donor to a nearby acceptor.
Data set [4] deals with PI3K (p110β/p85α) (h) (Homo sapiens (Human), UniProt P42338). The data set can be described thus: PI3K (p110β/p85α) (h) non-radioactive HTRF kinase assay. Format: biochemical.
Data set [5] addresses PI3K (p110δ/p85α) (h) (Homo sapiens (Human), UniProt O00329). Kind of data set: PI3K (p110δ/p85α) (h) non-radioactive HTRF kinase assay. The class given is biochemical.
Data set [6] has as its target PI3K (p120γ) (h) (Homo sapiens (Human), UniProt P48736). The data set can be described thus: PI3K (p120γ) (h) non-radioactive HTRF kinase assay. The class given is biochemical.
A short description of data set [7]: Pharmacokinetics after intravenous and oral administration in rats. The settings on record: for clearance (CL) / AUC(0-t) / half-life / Vd: iv dosing; for bioavailability / AUC(0-t) / half-life / Vd: rat, plasma; for bioavailability: oral dose generally 5 or 10 mg/kg; for Vd: read-out: Vss. The class given is in vivo, rat.
Data set [8] is described as follows: Pharmacokinetics after intravenous and oral administration in mice. The class given is in vivo. The settings on record: Mouse.
Data set [9] is described as follows: Pharmacokinetics after intravenous and oral administration in dogs. The conditions noted are these: Dog. Format: in vivo.
A short description of data set [10]: Pharmacokinetics after intravenous and oral administration in monkeys. The class given is in vivo. The conditions noted are these: Monkey.
Setting [11] is: plasma, iv dosing, dose 1 mg/kg.
Setting [12] is: plasma, iv dosing, dose 1 mg/kg, read-out: Vss.
The mark [13] stands for this setting: plasma, iv dose 1 mg/kg, oral dose generally 10 mg/kg.

PI3K (p110α/p85α) (h), sequence (P42336 whole entry): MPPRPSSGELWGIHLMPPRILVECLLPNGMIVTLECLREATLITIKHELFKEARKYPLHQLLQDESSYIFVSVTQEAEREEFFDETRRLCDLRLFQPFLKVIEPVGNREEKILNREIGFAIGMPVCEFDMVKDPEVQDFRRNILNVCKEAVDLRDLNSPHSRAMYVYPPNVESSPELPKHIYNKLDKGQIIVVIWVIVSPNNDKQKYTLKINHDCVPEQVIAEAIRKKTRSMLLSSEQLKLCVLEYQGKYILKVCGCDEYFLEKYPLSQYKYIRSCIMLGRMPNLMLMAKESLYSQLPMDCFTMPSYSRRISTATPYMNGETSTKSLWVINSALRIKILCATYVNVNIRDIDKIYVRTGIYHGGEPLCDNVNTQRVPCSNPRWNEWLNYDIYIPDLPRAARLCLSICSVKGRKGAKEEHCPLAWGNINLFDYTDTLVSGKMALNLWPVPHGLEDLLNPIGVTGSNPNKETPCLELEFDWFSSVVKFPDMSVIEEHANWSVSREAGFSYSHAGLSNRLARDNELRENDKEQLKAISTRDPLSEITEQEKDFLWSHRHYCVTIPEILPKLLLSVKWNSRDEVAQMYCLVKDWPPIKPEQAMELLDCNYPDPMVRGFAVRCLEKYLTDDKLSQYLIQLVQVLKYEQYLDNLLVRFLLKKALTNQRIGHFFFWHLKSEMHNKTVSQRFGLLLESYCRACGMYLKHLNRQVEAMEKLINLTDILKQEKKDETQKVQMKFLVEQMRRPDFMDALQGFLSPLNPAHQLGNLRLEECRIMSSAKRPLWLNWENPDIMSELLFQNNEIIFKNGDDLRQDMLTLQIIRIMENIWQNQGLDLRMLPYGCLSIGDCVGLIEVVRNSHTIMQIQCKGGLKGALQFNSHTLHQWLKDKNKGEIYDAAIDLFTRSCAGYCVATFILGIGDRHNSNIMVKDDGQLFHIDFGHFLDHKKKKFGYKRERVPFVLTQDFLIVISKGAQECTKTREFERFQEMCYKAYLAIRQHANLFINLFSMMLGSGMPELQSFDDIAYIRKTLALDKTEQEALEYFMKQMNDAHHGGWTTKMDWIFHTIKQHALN
PI3K (p110α/p85α) (h), sequence (P27986 whole entry partner): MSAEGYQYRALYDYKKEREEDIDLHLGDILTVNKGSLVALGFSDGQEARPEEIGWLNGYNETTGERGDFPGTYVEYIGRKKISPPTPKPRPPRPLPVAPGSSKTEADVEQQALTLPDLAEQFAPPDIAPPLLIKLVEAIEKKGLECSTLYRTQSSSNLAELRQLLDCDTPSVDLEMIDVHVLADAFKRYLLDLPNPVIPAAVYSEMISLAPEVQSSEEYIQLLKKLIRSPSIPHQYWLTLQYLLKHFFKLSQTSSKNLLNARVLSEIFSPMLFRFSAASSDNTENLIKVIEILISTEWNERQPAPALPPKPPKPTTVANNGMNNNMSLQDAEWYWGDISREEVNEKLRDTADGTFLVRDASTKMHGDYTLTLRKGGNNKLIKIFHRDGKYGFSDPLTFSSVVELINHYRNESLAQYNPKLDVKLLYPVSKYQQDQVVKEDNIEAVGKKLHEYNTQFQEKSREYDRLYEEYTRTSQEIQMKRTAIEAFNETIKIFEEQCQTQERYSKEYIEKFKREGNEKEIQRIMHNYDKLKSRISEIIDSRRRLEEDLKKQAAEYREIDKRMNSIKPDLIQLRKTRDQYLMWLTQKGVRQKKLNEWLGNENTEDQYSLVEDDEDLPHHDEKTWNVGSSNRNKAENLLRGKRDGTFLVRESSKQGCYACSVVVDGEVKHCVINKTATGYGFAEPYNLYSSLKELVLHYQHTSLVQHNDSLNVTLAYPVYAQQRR
PI3K (p110β/p85α) (h), sequence (P42338 whole entry): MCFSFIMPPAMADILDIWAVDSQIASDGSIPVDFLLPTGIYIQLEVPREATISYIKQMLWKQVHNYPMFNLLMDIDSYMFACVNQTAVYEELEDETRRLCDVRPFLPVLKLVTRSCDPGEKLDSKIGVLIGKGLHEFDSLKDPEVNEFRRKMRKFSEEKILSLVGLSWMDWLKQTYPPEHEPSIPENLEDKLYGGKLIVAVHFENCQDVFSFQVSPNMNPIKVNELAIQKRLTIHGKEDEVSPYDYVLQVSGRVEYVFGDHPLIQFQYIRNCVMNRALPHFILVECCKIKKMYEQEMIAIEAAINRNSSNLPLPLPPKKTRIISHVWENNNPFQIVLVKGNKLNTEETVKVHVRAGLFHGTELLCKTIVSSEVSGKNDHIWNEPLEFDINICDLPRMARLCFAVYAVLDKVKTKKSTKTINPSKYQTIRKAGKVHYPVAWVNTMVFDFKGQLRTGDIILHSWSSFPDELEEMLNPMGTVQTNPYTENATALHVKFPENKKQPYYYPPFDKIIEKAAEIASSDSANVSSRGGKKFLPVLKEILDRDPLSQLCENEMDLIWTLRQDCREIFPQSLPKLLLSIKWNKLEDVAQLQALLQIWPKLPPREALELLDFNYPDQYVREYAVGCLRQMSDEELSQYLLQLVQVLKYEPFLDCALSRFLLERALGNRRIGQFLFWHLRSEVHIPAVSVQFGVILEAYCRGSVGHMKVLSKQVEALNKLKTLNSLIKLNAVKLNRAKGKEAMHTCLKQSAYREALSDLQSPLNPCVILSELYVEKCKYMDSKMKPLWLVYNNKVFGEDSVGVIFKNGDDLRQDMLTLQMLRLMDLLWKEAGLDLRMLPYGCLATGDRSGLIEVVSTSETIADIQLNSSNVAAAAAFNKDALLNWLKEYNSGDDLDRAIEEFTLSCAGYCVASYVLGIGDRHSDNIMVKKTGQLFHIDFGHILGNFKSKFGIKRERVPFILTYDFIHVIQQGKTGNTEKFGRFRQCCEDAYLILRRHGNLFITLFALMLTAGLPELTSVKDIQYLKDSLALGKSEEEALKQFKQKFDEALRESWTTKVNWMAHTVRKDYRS
PI3K (p110β/p85α) (h), sequence (P27986 whole entry partner): as the sequence (P27986 whole entry partner) above
PI3K (p110δ/p85α) (h), sequence (O00329 whole entry): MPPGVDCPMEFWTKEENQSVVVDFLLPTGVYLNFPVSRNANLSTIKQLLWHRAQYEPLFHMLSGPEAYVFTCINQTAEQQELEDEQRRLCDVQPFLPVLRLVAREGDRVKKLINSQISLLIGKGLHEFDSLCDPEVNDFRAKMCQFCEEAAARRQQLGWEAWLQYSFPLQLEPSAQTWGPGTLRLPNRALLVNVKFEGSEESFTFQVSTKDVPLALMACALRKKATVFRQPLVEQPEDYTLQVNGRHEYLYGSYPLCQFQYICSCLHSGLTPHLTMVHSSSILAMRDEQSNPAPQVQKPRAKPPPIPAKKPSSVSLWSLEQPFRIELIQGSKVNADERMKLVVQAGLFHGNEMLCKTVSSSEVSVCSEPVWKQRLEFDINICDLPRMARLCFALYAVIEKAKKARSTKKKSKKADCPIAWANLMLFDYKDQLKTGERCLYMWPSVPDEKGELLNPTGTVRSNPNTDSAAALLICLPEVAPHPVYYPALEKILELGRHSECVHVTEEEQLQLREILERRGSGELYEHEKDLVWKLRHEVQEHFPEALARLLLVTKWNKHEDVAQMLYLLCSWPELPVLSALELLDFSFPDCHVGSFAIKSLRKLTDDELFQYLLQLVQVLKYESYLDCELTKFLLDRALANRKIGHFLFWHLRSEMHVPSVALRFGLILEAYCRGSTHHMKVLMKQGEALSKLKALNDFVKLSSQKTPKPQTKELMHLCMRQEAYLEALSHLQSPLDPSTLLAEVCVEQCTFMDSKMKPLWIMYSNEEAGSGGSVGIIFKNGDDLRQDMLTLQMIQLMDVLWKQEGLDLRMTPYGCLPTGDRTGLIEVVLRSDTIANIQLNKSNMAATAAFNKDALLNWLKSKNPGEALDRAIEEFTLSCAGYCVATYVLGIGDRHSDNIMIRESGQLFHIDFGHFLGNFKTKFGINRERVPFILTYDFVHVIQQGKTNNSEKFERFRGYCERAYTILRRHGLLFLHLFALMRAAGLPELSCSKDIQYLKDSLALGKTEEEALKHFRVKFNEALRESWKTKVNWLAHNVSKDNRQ
PI3K (p110δ/p85α) (h), sequence (P27986 whole entry partner): as the sequence (P27986 whole entry partner) above
PI3K (p120γ) (h), sequence (P48736 whole entry): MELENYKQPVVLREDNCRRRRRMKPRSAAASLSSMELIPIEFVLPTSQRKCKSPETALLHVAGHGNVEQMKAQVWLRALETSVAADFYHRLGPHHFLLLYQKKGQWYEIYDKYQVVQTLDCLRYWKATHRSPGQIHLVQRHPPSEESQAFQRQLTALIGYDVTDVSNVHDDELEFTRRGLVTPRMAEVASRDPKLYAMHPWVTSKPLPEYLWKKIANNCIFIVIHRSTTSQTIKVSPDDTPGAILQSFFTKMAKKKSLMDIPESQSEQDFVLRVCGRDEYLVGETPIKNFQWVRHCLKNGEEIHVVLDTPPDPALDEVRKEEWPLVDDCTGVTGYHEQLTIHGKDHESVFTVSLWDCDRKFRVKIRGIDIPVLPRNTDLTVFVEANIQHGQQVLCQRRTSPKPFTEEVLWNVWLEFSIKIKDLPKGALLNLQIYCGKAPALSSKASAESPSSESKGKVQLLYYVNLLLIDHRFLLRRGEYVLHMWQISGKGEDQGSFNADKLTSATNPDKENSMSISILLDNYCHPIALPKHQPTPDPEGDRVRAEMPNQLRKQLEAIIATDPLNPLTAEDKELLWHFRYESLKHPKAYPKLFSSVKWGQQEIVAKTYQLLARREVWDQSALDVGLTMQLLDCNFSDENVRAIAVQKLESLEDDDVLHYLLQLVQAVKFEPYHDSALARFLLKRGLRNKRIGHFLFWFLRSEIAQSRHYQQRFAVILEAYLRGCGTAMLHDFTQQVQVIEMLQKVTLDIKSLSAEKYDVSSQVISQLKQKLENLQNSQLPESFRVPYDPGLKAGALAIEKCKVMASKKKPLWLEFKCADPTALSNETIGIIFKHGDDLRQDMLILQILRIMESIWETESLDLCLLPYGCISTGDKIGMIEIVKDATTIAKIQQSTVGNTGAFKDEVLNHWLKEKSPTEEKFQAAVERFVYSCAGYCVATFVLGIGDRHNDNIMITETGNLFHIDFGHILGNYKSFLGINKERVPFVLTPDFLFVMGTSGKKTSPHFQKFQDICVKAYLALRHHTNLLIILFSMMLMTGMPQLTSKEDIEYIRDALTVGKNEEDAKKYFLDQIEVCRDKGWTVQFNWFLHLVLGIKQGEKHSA

Consider `Cc1noc(-c2c(N)ncnc2N[C@@H](C)c2nc3cccc(F)c3c(=O)n2-c2ccccc2)n1` [Ex. 63, (S)-2-(1-((6-amino-5-(3-methyl-1,2,4-oxadiazol-5-yl)pyrimidin-4-yl)amino)ethyl)-5-fluoro-3-phenylquinazolin-4(3H)-one], for which the half-life (usually how long it takes for the measured level to halve) at 5 μM in data set [1] was 47.9 min; in data set [2] it was 17.9 min. Also, the values for the CLint scaled at 5 μM in data set [1] and in [2] were 36.3 mL/min/kg and 139 mL/min/kg, respectively. Besides, the 50% inhibitory concentration (IC50) (as a rule, the concentration needed to halve the response being measured) is > 3000 nM in data set [3], 1320 nM in data set [4], 18 nM in data set [5] and 269 nM in data set [6].

Consider `Cc1noc(-c2c(N)ncnc2N[C@@H](C)c2nc3cccc(Cl)c3c(=O)n2-c2ccccc2)n1` [Ex. 65, (S)-2-(1-((6-amino-5-(3-methyl-1,2,4-oxadiazol-5-yl)pyrimidin-4-yl)amino)ethyl)-5-chloro-3-phenylquinazolin-4(3H)-one], for which the half-life at 5 μM worked out at 33.1 min in data set [1] and 32.6 min in [2]. Besides, the CLint scaled – broadly, the capacity of the preparation to metabolise the compound, expressed as a volume cleared per time – at 5 μM in data set [1] was 52.5 mL/min/kg; in data set [2], 76.1 mL/min/kg. The “clearance (CL)” value in data set [7] (dose 1 mg/kg) turned out to be 129 mL/min/kg. The bioavailability (usually dose-corrected exposure relative to a reference, in per cent) in data set [7] (iv dose 1 mg/kg) was 88.7%; in data set [8] (plasma, iv dose 1 mg/kg, oral dose generally 5 or 10 mg/kg), 33.3%; in data set [9] (setting [13]) it was 24.8%; in data set [10] (setting [13]) it was 10%. For the same molecule, the AUC(0-t) (in general, the area under the concentration-time curve up to a stated or last time point) in [7] (dose 1 mg/kg) came out at 260 ng·h/mL; in data set [8] (setting [11]), 527 ng·h/mL; in [9] (setting [11]), 2690 ng·h/mL; in data set [10] (setting [11]), 1060 ng·h/mL. Besides, the half-life in [7] (dose 1 mg/kg) is 54.2 min; in [8] (setting [11]), 47.4 min; in data set [9] (setting [11]), 636 min; in data set [10] (setting [11]), 403 min. Besides, the Vd came out at 9.09 L/kg in data set [7] (dose 1 mg/kg), 0.84 L/kg in [8] (setting [12]), 4.25 L/kg in data set [9] (setting [12]) and 4.2 L/kg in data set [10] (setting [12]). Moreover, the CL/F (in general, clearance divided by bioavailability, as obtained after extravascular dosing) was 31.7 mL/min/kg in data set [8] (iv dosing, dose 1 mg/kg); 6.17 mL/min/kg in [9] (iv dosing, dose 1 mg/kg); 15.3 mL/min/kg in [10] (iv dosing, dose 1 mg/kg). Also, the IC50 in data set [3] turned out to be 1010 nM; in data set [4], 154 nM; in data set [5] it was 2 nM; in data set [6], 37 nM.

In the case of `CC[C@H](Nc1ncnc(N)c1-c1nnc(C)o1)c1nc2cccc(Cl)c2c(=O)n1-c1cccc(F)c1` [Ex. 34, (S)-2-(1-((6-amino-5-(5-methyl-1,3,4-oxadiazol-2-yl)pyrimidin-4-yl)amino)-propyl)-5-chloro-3-(3-fluorophenyl)quinazolin-4(3H)-one], the half-life at 5 μM was 29.8 min in data set [1] and 8.94 min in [2]. Further, the CLint scaled at 5 μM was 58.3 mL/min/kg in [1] and 278 mL/min/kg in data set [2]. Further, the IC50 is > 3000 nM in data set [3], 1360 nM in [4], 12 nM in data set [5] and > 3000 nM in [6].

On to `CC[C@H](Nc1ncnc(N)c1C1=N[C@@H](C)CO1)c1nc2cccc(Cl)c2c(=O)n1-c1ccccc1` [Ex. 6, 2-((S)-1((6-amino-5-((S)-4-methyl-4,5-dihydrooxazol-2-yl)pyrimidin-4-yl)amino)propyl)-5-chloro-3-phenylquinazolin-4(3H)-one], for which, in data set [1], the half-life at 5 μM came to 3.11 min and the CLint scaled at 5 μM was 560 mL/min/kg. Besides, in [2], the half-life at 5 μM is 3.44 min and the CLint scaled at 5 μM was 722 mL/min/kg. Moreover, in [7] (dose 1 mg/kg), the “clearance (CL)” value was found to be 110 mL/min/kg, the AUC(0-t) stood at 151 ng·h/mL, the half-life was 69 min and the Vd is 6.75 L/kg. In data set [7] (iv dose 1 mg/kg), this molecule gave a bioavailability of 5.56%. Moreover, the IC50 in data set [4] is > 3000 nM. In [5], the IC50 was found to be 99 nM.

On to `CC[C@H](Nc1ncnc(N)c1-c1nc(C)no1)c1nc2cccc(F)c2c(=O)n1-c1ccccc1` [Ex. 39, (S)-2-(1-((6-amino-5-(3-methyl-1,2,4-oxadiazol-5-yl)pyrimidin-4-yl)amino)-propyl)-5-fluoro-3-phenylquinazolin-4(3H)-one], for which, in [1], the half-life at 5 μM was found to be 69.3 min and the intrinsic clearance (CLint scaled) at 5 μM was 25.1 mL/min/kg. Also, in [2], the half-life at 5 μM was 15.6 min and the CLint scaled at 5 μM was 159 mL/min/kg. In [7] (dose 1 mg/kg), the “clearance (CL)” value came to 51.8 mL/min/kg, the AUC(0-t) was found to be 323 ng·h/mL, the half-life is 57 min and the Vd amounted to 4.09 L/kg. In data set [7] (iv dose 1 mg/kg), this molecule gave a bioavailability of 75.5%. For the same molecule, the IC50 in data set [3] was 2750 nM. Further, in [4], the IC50 was 502 nM. Further, the IC50 in data set [5] was determined as 11 nM. In [6], the IC50 was 893 nM.

For `CC[C@H](Nc1ncnc(N)c1-c1ncnn1C)c1nc2cccc(Cl)c2c(=O)n1-c1ccccc1` [Ex. 10, 2-((1S)-1-((6-amino-5-(1-methyl-1H-1,2,4-triazol-5-yl)pyrimidin-4-yl)amino)propyl)-5-chloro-3-phenylquinazolin-4(3H)-one], in data set [1], the half-life at 5 μM amounted to 92 min and the CLint scaled at 5 μM is 18.9 mL/min/kg. In data set [2], the half-life at 5 μM stood at 70.1 min and the CLint scaled at 5 μM is 35.4 mL/min/kg. Besides, in [7] (dose 0.5 mg/kg), the “clearance (CL)” value was found to be 3.5 mL/min/kg, the AUC(0-t) was determined as 2420 ng·h/mL, the half-life was 72 min and the Vd is 0.3 L/kg. This molecule showed a bioavailability in data set [7] (iv dose 0.5 mg/kg) of 40.2%. Besides, in data set [4], the IC50 is > 3000 nM. In addition, in data set [5], the IC50 stood at 2510 nM.

Consider `CC[C@H](Nc1ncnc(N)c1-c1nc(C)no1)c1nc2cccc(Cl)c2c(=O)n1-c1ccccc1` [Ex. 3, (S)-2-(1-((6-amino-5-(3-methyl-1,2,4-oxadiazol-5-yl)pyrimidin-4-yl)amino)-propyl)5-chloro-3-phenylquinazolin-4(3H)-one], for which, in data set [1], the half-life at 5 μM is 36.7 min and the CLint scaled at 5 μM was 47.4 mL/min/kg. In addition, in data set [2], the half-life at 5 μM stood at 31 min and the CLint scaled at 5 μM was 80.2 mL/min/kg. In data set [7] (dose 1 mg/kg), the “clearance (CL)” value came to 70.8 mL/min/kg, the area under the curve AUC(0-t) is 237 ng·h/mL, the half-life was 71.4 min and the Vd worked out at 6.23 L/kg. This molecule also came in with a bioavailability in [7] (iv dose 1 mg/kg) of 64.5%. Also, the half-inhibitory concentration (IC50) in data set [3] was 442 nM. For the same molecule, the IC50 in [4] stood at 142 nM. Moreover, in data set [5], the IC50 was found to be 2 nM. For the same molecule, in [6], the IC50 came out at 66 nM.

On to `CC[C@H](Nc1ncnc(N)c1-c1nnc(C)o1)c1nc2cccc(Cl)c2c(=O)n1-c1ccccc1` [Ex. 1, (S)-2-(1-((6-amino-5-(5-methyl-1,3,4-oxadiazol-2-yl)pyrimidin-4-yl)amino)-propyl)-5-chloro-3-phenylquinazolin-4(3H)-one], for which, in data set [1], the half-life at 5 μM came to 53.5 min and the CLint scaled at 5 μM was 32.5 mL/min/kg. Further, in data set [2], the half-life at 5 μM worked out at 17.5 min and the CLint scaled at 5 μM was 142 mL/min/kg. Moreover, in data set [7] (dose 0.5 mg/kg), the “clearance (CL)” value was 47.3 mL/min/kg, the exposure AUC(0-t) was 355 ng·h/mL, the half-life is 46.8 min and the Vd was found to be 3.68 L/kg. In data set [7] (iv dose 0.5 mg/kg), this molecule showed a bioavailability of 32.3%. In data set [5], the IC50 came out at 3 nM. Further, the IC50 in data set [6] was found to be 384 nM.

For `CC[C@H](Nc1ncnc(N)c1-c1nnc(C)o1)c1nc2cccc(Cl)c2c(=O)n1C1CC1` [Ex. 2, (S)-2-(1-((6-amino-5-(5-methyl-1,3,4-oxadiazol-2-yl)pyrimidin-4-yl)amino)-propyl)-5-chloro-3-cyclopropylquinazolin-4(3H)-one], the figures for the half-life at 5 μM in data set [1] and in data set [2] were 32.1 min and 31.4 min, respectively. The CLint scaled at 5 μM in data set [1] is 54.1 mL/min/kg; in data set [2] it was 79.1 mL/min/kg. Moreover, the “clearance (CL)” value in data set [7] (dose 1 mg/kg) amounted to 41.2 mL/min/kg. This molecule came in with a bioavailability in data set [7] (iv dose 1 mg/kg) of 63.9%. Besides, the AUC(0-t) in data set [7] (dose 1 mg/kg) was determined as 405 ng·h/mL. For the same molecule, the half-life in data set [7] (dose 1 mg/kg) is 75.6 min. Besides, in data set [7] (dose 1 mg/kg), the Vd was found to be 3.93 L/kg. Further, the IC50 in data set [3] is > 3000 nM; in [4], 168 nM; in data set [5], 33 nM; in [6] it was 1930 nM.

With `Cc1noc(-c2c(N)ncnc2N[C@@H](C)c2nc3cccc(Cl)c3c(=O)n2C2CC2)n1` [Ex. 41, (S)-2-(1-((6-amino-5-(3-methyl-1,2,4-oxadiazol-5-yl)pyrimidin-4-yl)amino)-ethyl)-5-chloro-3-cyclopropylquinazolin-4(3H)-one], in data set [1], the half-life at 5 μM was found to be 41 min and the CLint scaled at 5 μM was 42.4 mL/min/kg. In [2], the half-life at 5 μM was 22.4 min and the intrinsic clearance (CLint scaled) at 5 μM was 111 mL/min/kg. Further, in data set [7] (dose 1 mg/kg), the “clearance (CL)” value turned out to be 84.3 mL/min/kg, the AUC(0-t) worked out at 200 ng·h/mL, the half-life is 65.4 min and the Vd was 6.68 L/kg. This molecule also had a bioavailability in data set [7] (iv dose 1 mg/kg) of 46.5%. For the same molecule, the IC50 in data set [3] came to 1200 nM. In addition, the IC50 in data set [4] was determined as 35 nM. For the same molecule, the IC50 in data set [5] amounted to 5 nM. Further, in data set [6], the IC50 turned out to be 261 nM.
